From paper PMC10702189, “Tetrazine Glycoconjugate for Pretargeted Positron Emission Tomography Imaging of trans-Cyclooctene-Functionalized Molecular Spherical Nucleic Acids” (ACS Omega, 2023)
Like-named read-outs stand apart in the source and are kept apart here.

Assays:
[1] = target: T1, GLUT1 (Homo sapiens, UniProt P11166); set-up: method as in PMID 33390018; details: CAL27 cells; cited from earlier work
T1 construct: host or cells: CAL27 squamous cell carcinoma cells
T1 sequence (P11166 1-492): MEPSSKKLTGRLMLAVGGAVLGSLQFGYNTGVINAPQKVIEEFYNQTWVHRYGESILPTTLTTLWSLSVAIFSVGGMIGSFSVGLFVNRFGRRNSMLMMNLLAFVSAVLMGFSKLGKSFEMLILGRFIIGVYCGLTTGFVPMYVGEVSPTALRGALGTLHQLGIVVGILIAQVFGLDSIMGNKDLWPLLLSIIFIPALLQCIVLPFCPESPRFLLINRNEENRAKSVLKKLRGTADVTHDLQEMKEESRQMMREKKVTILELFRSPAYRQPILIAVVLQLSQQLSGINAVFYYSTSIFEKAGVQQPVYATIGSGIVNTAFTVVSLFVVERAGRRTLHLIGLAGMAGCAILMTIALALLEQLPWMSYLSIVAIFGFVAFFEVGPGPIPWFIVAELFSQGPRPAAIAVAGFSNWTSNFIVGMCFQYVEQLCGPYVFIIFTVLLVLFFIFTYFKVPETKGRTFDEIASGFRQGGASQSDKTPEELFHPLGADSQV

[2] = target: T1, GLUT1; test: Competition for GLUT1 binding with D-[14C]-glucose in CAL27 cells; type: cell-based; details: for IC50: 5 min at r.t., 1.8 μM D-[14C]-glucose, compounds 0.5–1400 μM, read-out: IC50, inhibition of D-[14C]-glucose (GLUT1 binding affinity)
Experimental: (§1) CAL27 squamous cell carcinoma cells (ATCC CRL-2095) were purchased from the American Type Culture Collection (ATCC, Manassas, VA, USA). CAL27 cells were cultured in Dulbecco’s modified Eagle medium (DMEM; Gibco, ThermoFisher Scientific, Waltham, MA, USA) supplemented with L-glutamine (2.0 mM; ThermoFisher Scientific, Waltham, MA, USA), heat-inactivated fetal bovine serum (10%; Gibco, ThermoFisher Scientific, Waltham, MA, USA), and penicillin (50 U/mL)–streptomycin (50 μg/mL) solution (ThermoFisher Scientific, Waltham, MA, USA). CAL27 cells (passages 6–10) were seeded at the density of 5 × 10^5 cells/wells onto 24-well plates. The cells were used in affinity and uptake studies 2 days after seeding. The culture medium was removed, and the cells were washed with prewarmed Hank’s balanced salt solution (HBSS) without glucose (HBSS; 125 mM NaCl, 4.8 mM KCl, 1.2 mM MgSO4, 1.3 mM KH2PO4, 1.3 mM CaCl2, and 25 mM HEPES adjusted to pH 7.4). The cells were then incubated with HBSS at 37 °C for 10 min before the experiments.
The GLUT1-binding ability of the studied compounds was performed by using a known radiolabeled GLUT1 substrate, D-[^14C]-glucose (PerkinElmer, Waltham, MA, USA). Briefly, after preincubation with 500 μL of prewarmed glucose free HBSS, the cells were incubated at r.t. for 5 min with studied compounds (0.5–1400 μM) containing 1.8 μM (0.1 mCi/mL) of D-[^14C]-glucose in glucose free HBSS (250 μL) and D-[^14C]-glucose as blank. The reaction was stopped with ice-cold buffer, and the cells were washed two times with ice-cold buffer on the ice bath, lysed with 250 μL of 1% perchloric acid, and mixed with 1.0 mL of emulsifier safe cocktail (PerkinElmer, Waltham, MA, USA). The radioactivity was measured by a liquid scintillation counter (MicroBeta[2] counter, PerkinElmer, Waltham, MA, USA), (Figure S12). Half-maximal inhibitory concentration (IC50) was calculated by nonlinear regression analysis.

[3] = system: CAL27 cell line; test: Concentration-dependent cell uptake in CAL27 cells (LC-MS/MS); type: cell-based, human; details: 5–400 μM, 5 min; for Km: read-out: Km of cellular uptake
Experimental: as §1
The cells were first preincubated as described above. The cell uptake of these novel compounds was studied by adding 5–400 μM of studied compounds in 250 μL of prewarmed glucose free HBSS buffer on top of the cell layer and incubating the cells at r.t. for 5 min, based on the optimal performance of D-[^14C]-glucose under these conditions. After incubation, the reaction was stopped with ice-cold buffer; the cells were then washed and lysed as described above.
For the LC-MS/MS analysis, an aliquot was taken from the lysates and diluted with acidified acetonitrile (0.1% formic acid) 1:1, including internal standard (IS). FDG-Tz was used as an internal standard for FDR-Tz, and vice versa. After protein precipitation, the samples were centrifuged for 10 min with 10,000 × g at 4 °C. The supernatant was then collected and transferred to vials for LC-MS/MS analysis.
The samples were analyzed with LC-MS/MS coupled with an Agilent 1200 series Rapid Resolution LC System (Agilent Technologies, Waldbronn, Germany) and Agilent 6410 Triple Quadrupole with an electrospray ionization (ESI) (Agilent Technologies, Palo Alto, CA, USA). The samples were injected (5 μL) into the reversed-phase HPLC column (Zorbax Eclipse XDB-C18 Rapid Resolution 4.6 × 50 mm, […], Agilent Technologies, Palo Alto, CA, USA). The aqueous mobile phase was 0.1% formic acid in water (A), while the organic mobile phase was 0.1% formic acid in acetonitrile (B).
The column temperature was 40 °C and the flow rate of 0.5 mL/min was used, with the following gradient 0–4 min: 5% → 95% B, 4–6 min: 95% B, 6–6.1 min: 95% → 5% B, 6.1–8 min: 5% B. The following instrument optimizations were used: 300 °C sheath gas heat, 6.5 L/min drying gas flow, 25 psi nebulizer pressure, and 4000 V capillary voltage, respectively. Detection was performed by using multiple reaction monitoring (MRM) with the following transitions: m/z 425 → 261 for FDG-Tz and m/z 395 → 261 for FDR-Tz.
The lower limit of quantification (LLOQ) for both studied compounds was 5 nM. These LC-MS/MS methods were also selective, accurate (RSD < 15%) and precise (RSD < 15%) over the range 5.0–2500 nM, with good linearity (R^2 > 0.993).
Three replicates were analyzed from each concentration, and the statistical analyses were performed using GraphPad Prism v.5.03 software (GraphPad Software, San Diego, CA, USA).

SMILES | IC50 [1] | IC50 [2] | Concentration dependence of cellular uptake (shape of curve) [3] | Vmax of cellular uptake [3] | Km [3] | Fold higher affinity for GLUT1 compared to FDG-Tz ([2]; ratio of IC50 values)
OC[C@H]1OC(O)[C@H](O)[C@@H](O)[C@@H]1O (stereo partly drawn) [D-glucose] | > 1000 µM | – | – | – | – | –
O=C(CON=C[C@H](F)[C@@H](O)[C@H](O)C(O)CO)NCc1ccc(-c2nncnn2)cc1 (stereo partly drawn) [FDG-Tz, N-(4-(1,2,4,5-tetrazin-3-yl)benzyl)-2-((((2S,3S,4R)-2-fluoro-3,4,5,6-tetrahydroxyhexylidene)amino)oxy)acetamide] | – | 324 µM | concentration-dependent | 63.2 ± 8.5 pmol/min/mg of protein | 27.6 ± 13.8 µM | –
O=C(CON=C[C@@H](O)[C@@H](O)[C@@H](O)CF)NCc1ccc(-c2nncnn2)cc1 [FDR-Tz, N-(4-(1,2,4,5-tetrazin-3-yl)benzyl)-2-((((2R,3R,4R)-5-fluoro-2,3,4-trihydroxypentylidene)amino)oxy)acetamide, reference compound] | – | 22.4 µM | – | 27.8 ± 3.7 pmol/min/mg of protein | 3.6 ± 7.8 µM | ~15 times
